Results from US8361959B2, “Spiro-imidazolone derivatives as glucagon receptor antagonists” (Merck Sharp & Dohme Corp., priority 2008, dated 2013).

Molecular target: T1, recombinant human glucagon receptor (Homo sapiens, UniProt P47871)
T1 construct: expressed in transfected cells; host or cells: CHO (Chinese hamster ovary) cells
Test: Inhibition of glucagon-stimulated intracellular cAMP assay
Format: cell-based
Conditions: CHO cells expressing recombinant human glucagon receptor, stimulated with 300 pM glucagon, LANCE cAMP
Experimental: Inhibition of Glucagon-Stimulated Intracellular cAMP Assay
Chinese hamster ovary (CHO) cells expressing the recombinant human glucagon receptor were harvested with the aid of non-enzymatic cell dissociation solution (GIBCO 13151-014). The cells were then pelleted and suspended in the stimulation buffer (1×HBSS, 5 mM Hepes, 0.1% BSA, pH7.4 in presence of complete protease inhibitor and phosphodiesterase inhibitor). The adenylate cyclase assay was conducted following the LANCE cAMP Kit (Perkin Elmer, AD0262) instructions. Briefly, cells were preincubated with anti-cAMP antibody in the stimulation buffer with a final concentration of 3% DMSO for 30 minutes and then stimulated with 300 pM glucagon for 45 minutes. The reaction was stopped by incubating with the detection buffer containing Europium chelate of the Eu-SA/Biotin-cAMP tracer for 20 hours. The fluorescence intensity emitted from the assay was measured at 665 nm using PheraStar instruments. […] Standard cAMP concentrations were conducted concurrently for conversion of fluorescence signal to cAMP level. Data was analyzed using GraphPad Prism. IC50 values were calculated using non-linear regression analysis assuming single site competition. […] Some of the compounds of the invention shown in the examples measured less than about 5 μM in this assay; other examples measured less than about 500 nM; others less than about 100 nM. […]

T1 sequence (P47871 26-477): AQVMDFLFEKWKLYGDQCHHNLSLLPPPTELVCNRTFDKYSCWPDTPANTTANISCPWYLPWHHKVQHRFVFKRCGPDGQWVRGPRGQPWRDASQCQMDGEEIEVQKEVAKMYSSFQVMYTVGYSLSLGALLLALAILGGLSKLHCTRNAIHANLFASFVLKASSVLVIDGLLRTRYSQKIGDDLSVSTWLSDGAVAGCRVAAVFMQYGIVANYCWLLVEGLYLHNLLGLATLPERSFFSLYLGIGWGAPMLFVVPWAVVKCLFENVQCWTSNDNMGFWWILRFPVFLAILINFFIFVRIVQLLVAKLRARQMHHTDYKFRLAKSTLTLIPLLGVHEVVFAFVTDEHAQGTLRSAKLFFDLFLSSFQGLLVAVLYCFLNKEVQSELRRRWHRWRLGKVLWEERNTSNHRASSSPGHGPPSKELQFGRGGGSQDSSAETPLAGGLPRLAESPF

IC50 [µM] | SMILES
0.057 | CC(C)(C)C1CCC2(CC1)N=C(c1ccc(F)cc1)C(=O)N2[C@@H](c1ccc(C(=O)NCCC(=O)O)cc1)C1CC1 (some centres unmarked) [Example 1.212]
0.452 | CCC[C@H](c1ccc(C(=O)NCc2nn[nH]n2)cc1)N1C(=O)C(c2cccc(Cl)c2)=NC12CCC(C(C)(C)C)CC2 (some centres unmarked) [Example 1.156]
